Laboratory results: patent EP4603105A1, “PHARMACEUTICAL COMPOSITION CONTAINING CYCLIC COMPOUND HAVING SELECTIVE KRAS INHIBITORY EFFECT AGAINST HRAS AND NRAS” (CHUGAI SEIYAKU KABUSHIKI KAISHA, priority 2022, dated 2024)
*1 amine or outer side, *2 acyl side, *3 side chain or, on linkers, in order; H or OH if unused. Where a SMILES comes first, the peptide text is derived from it. Bridges are numbered along the chain shown (N, C = ends). [ ]: non-standard residue; d: D form. The star is where a group is joined. hPhe(3-Cl-4-CF3) = N[C@@H](CCc1ccc(C(F)(F)F)c(Cl)c1)C(=O)O; X18 = CCCCN([C@@H](Cc1ccc(C(F)(F)F)cc1)C(=O)[*:2])[*:1]; X19 = O=C([C@H](Cc1ccc(C(F)(F)F)cc1)N(CCCF)[*:1])[*:2]; NPrPhe(4-CF3) = CCCN[C@@H](Cc1ccc(C(F)(F)F)cc1)C(=O)O; NMeGly(cPent) = CN[C@H](C(=O)O)C1CCCC1; cisHyp = O=C(O)[C@@H]1C[C@H](O)CN1; Gly(cBu) = N[C@H](C(=O)O)C1CCC1; NMeD = CN[C@@H](CC(=O)O)C(=O)O; NMeL = CN[C@@H](CC(C)C)C(=O)O; Morpholide = C1CN(*)CCO1; NMeA = CN[C@@H](C)C(=O)O; Ac5c = NC1(C(=O)O)CCCC1; Aze = O=C(O)[C@@H]1CCN1; Sar = CNCC(=O)O

Key:
[1] = target: GDP-bound NRAS wild-type protein (Homo sapiens, UniProt P01111); assay: Binding to NRAS by surface plasmon resonance (SPR), KD and KD ratio to KRAS
Sequence of GDP-bound NRAS wild-type protein (P01111 whole entry): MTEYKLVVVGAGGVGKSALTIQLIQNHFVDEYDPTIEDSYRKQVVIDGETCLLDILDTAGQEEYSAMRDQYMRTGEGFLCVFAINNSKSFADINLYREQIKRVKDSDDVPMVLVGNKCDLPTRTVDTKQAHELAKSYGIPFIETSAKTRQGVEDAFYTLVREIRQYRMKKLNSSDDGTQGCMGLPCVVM
Outline: (§1)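 Affinity is measured by surface plasmon resonance at 30°C against captured, GDP-loaded RAS carrying a biotinylated Avi tag. Compounds are titrated by single-cycle kinetics, and KD comes from a 1:1 fit.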

HRAS wild-type protein = HRAS wild-type protein (Homo sapiens, UniProt P01112); assay: Binding to HRAS by surface plasmon resonance (SPR), KD and KD ratio to KRAS
Sequence of HRAS wild-type protein (P01112 whole entry): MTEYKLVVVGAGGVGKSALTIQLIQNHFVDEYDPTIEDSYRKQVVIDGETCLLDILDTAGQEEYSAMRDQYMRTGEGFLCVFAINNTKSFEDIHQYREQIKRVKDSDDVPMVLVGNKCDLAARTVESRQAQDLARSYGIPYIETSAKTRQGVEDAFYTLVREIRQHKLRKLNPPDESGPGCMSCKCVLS
Outline: as §1

[2] = system: human lung cancer strain NCI-H441; format: cell-based
Outline: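 Readout: […] after the ATP-based reagent. Compound: serial dilutions in dimethyl sulfoxide.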

[3] = ratio of the KD value with respect to GDP-bound NRAS wild-type protein to the KD value with respect to KRAS
[4] = ratio of the KD value with respect to HRAS wild-type protein to the KD value with respect to KRAS
[5] = ratio of KD for GDP-bound NRAS wild-type protein to KD for KRAS
[6] = ratio of KD for HRAS wild-type protein to KD for KRAS

Row | Compound | IC50 [2] | NRAS /KRAS [1, 3] | HRAS /KRAS (HRAS wild-type protein; [4]) | NRAS /KRAS ([1]; ratio of KD value for GDP-bound NRAS wild-type protein to KD value for KRAS (SPR)) | HRAS /KRAS (HRAS wild-type protein; ratio of KD value for HRAS wild-type protein to KD value for KRAS (SPR)) | NRAS /KRAS [1, 5] | HRAS /KRAS (HRAS wild-type protein; [6])
1 | CC[C@H](C)[C@@H]1NC(=O)[C@H](CC(C)C)N(C)C(=O)C[C@@H](C(=O)N2CCOCC2)N(C)C(=O)[C@H](C2CCCC2)N(C)C(=O)C2(CCCC2)NC(=O)[C@@H]2CCCN2C(=O)[C@H](CCc2cc(F)c(C(F)(F)F)c(F)c2)NC(=O)CN(C)C(=O)[C@H](Cc2ccc(C(F)(F)F)cc2)N2CCCCC[C@@H](C2=O)N(C)C(=O)[C@H](C)NC1=O [PP0481] | > 1000 nM | B (a compound having 3 or more and less than 10 is denoted as B) | B (a compound having 3 or more and less than 10 is denoted as B) | – | – | – | –
2 | CC[C@H](C)[C@@H]1NC(=O)[C@H](CC(C)C)N(C)C(=O)C[C@@H](C(=O)N2CCOCC2)N(C)C(=O)[C@H](C2CCCC2)N(C)C(=O)C2(CCCC2)NC(=O)[C@@H]2CCCN2C(=O)[C@H](CCc2ccc(C(F)(F)F)c(Cl)c2)NC(=O)CN(C)C(=O)[C@H](Cc2ccc(C(F)(F)F)cc2)N(CCCF)C(=O)CN(C)C(=O)CN(C)C1=O [PP0524] ([NMeL]I[Sar][Sar][X19][Sar][hPhe(3-Cl-4-CF3)]P[Ac5c][NMeGly(cPent)][NMeD]-Morpholide; lactam N-11) | 4.8 nM | B (a compound having 3 or more and less than 10 is denoted as B) | C (A compound having a KD ratio of 0.1 or more and less than 3 is denoted as C) | – | – | – | –
3 | CCC[C@H]1C(=O)N[C@@H]([C@@H](C)CC)C(=O)N2CCC[C@H]2C(=O)N(C)[C@H]2C/C=C\CCN(C2=O)[C@@H](Cc2ccc(C)cc2)C(=O)N(C)CC(=O)N[C@@H](CCc2cc(F)c(C(F)(F)F)c(F)c2)C(=O)N2C[C@H](OCC)C[C@H]2C(=O)N(C)C2(CCC2)C(=O)N(C)[C@@H](C2CCCC2)C(=O)N(C)[C@H](C(=O)N2CCCCC2)CC(=O)N1C [PP3115] | 5.7 nM | – | – | – | – | A (a compound having 10 or more and less than 20 is denoted as A) | B (a compound having 3 or more and less than 10 is denoted as B)
4 | CCCCN1C(=O)[C@@H]2CCN2C(=O)[C@H](C)N(C)C(=O)[C@H]([C@@H](C)CC)NC(=O)[C@H](CC(C)C)N(C)C(=O)C[C@@H](C(=O)N2CCOCC2)N(C)C(=O)[C@H](C2CCCC2)N(C)C(=O)C2(CCCC2)NC(=O)[C@@H]2CCCN2C(=O)[C@H](CCc2ccc(C(F)(F)F)c(Cl)c2)NC(=O)CN(C)C(=O)[C@@H]1Cc1ccc(C(F)(F)F)cc1 [PP0106] ([NMeL]I[NMeA][Aze][X18][Sar][hPhe(3-Cl-4-CF3)]P[Ac5c][NMeGly(cPent)][NMeD]-Morpholide; lactam N-11) | 12.3 nM | – | – | – | – | C (A compound having a KD ratio of 0.1 or more and less than 3 is denoted as C) | B (a compound having 3 or more and less than 10 is denoted as B)
5 | CCCN1C(=O)CN(C)C(=O)[C@@H]2CCN2C(=O)[C@H](C2CCC2)NC(=O)[C@H](CC(C)C)N(C)C(=O)C[C@@H](C(=O)N2CCOCC2)N(C)C(=O)[C@H](C2CCCC2)N(C)C(=O)C2(CCCC2)NC(=O)[C@@H]2CCCN2C(=O)[C@H](CCc2ccc(C(F)(F)F)c(Cl)c2)NC(=O)CN(C)C(=O)[C@@H]1Cc1ccc(C(F)(F)F)cc1 [PP0305] ([NMeL][Gly(cBu)][Aze][Sar][NPrPhe(4-CF3)][Sar][hPhe(3-Cl-4-CF3)]P[Ac5c][NMeGly(cPent)][NMeD]-Morpholide; lactam N-11) | 49.6 nM | – | – | – | – | B (a compound having 3 or more and less than 10 is denoted as B) | C (A compound having a KD ratio of 0.1 or more and less than 3 is denoted as C)

Second part, led by results:

Row | IC50 [2] | Compound | NRAS /KRAS [1, 3] | HRAS /KRAS (HRAS wild-type protein; [4]) | NRAS /KRAS ([1]; ratio of KD value for GDP-bound NRAS wild-type protein to KD value for KRAS (SPR)) | HRAS /KRAS (HRAS wild-type protein; ratio of KD value for HRAS wild-type protein to KD value for KRAS (SPR)) | NRAS /KRAS [1, 5] | HRAS /KRAS (HRAS wild-type protein; [6])
6 | 10.4 nM | CCC[C@H]1C(=O)N[C@@H]([C@@H](C)CC)C(=O)N(C)CC(=O)N(C)[C@H]2C/C=C\CCN(C2=O)[C@@H](Cc2ccc(C(F)(F)F)cc2)C(=O)N(C)CC(=O)N[C@@H](CCc2ccc(C(F)(F)F)c(Cl)c2)C(=O)N2C[C@@H](C)C[C@H]2C(=O)NC2(CC(C)(C)C2)C(=O)N(C)[C@@H](C2CCCC2)C(=O)N(C)[C@H](C(=O)N(C)C)CC(=O)N1C [PP2270] | B (a compound having 3 or more and less than 10 is denoted as B) | B (a compound having 3 or more and less than 10 is denoted as B) | – | – | – | –
7 | 10.7 nM | CC[C@H](C)[C@@H]1NC(=O)[C@H](CC)N(C)C(=O)C[C@@H](C(=O)N(C)C)N(C)C(=O)[C@H](C2CCCC2)N(C)C(=O)C2(CC(C)(C)C2)NC(=O)[C@@H]2C[C@H](C)CN2C(=O)[C@H](CCc2ccc(C(F)(F)F)c(OC)c2)NC(=O)CN(C)C(=O)[C@H](Cc2ccc(C)cc2)N2CC/C=C\C[C@@H](C2=O)N(C)C(=O)CN(C)C1=O [PP1836] | – | – | A (a compound having 10 or more and less than 20 is denoted as A) | B (a compound having 3 or more and less than 10 is denoted as B) | – | –
8 | 4.9 nM | CCC[C@H]1C(=O)N[C@@H]([C@@H](C)CC)C(=O)N2CCC[C@H]2C(=O)N(C)[C@H]2C/C=C\CCN(C2=O)[C@@H](Cc2ccc(C(F)(F)F)cc2)C(=O)N(C)CC(=O)N[C@@H](CCc2ccc(C(F)(F)F)c(OC)c2)C(=O)N2C[C@H](OCC)C[C@H]2C(=O)N(C)C2(CCC2)C(=O)N(C)[C@@H](C2CCCC2)C(=O)N(C)[C@H](C(=O)N2CCCC2)CC(=O)N1C [PP3101] | – | – | – | – | A (a compound having 10 or more and less than 20 is denoted as A) | A (a compound having 10 or more and less than 20 is denoted as A)
9 | 10.3 nM | CCC[C@H]1C(=O)N[C@@H]([C@@H](C)CC)C(=O)N(C)CC(=O)N(C)[C@H]2C/C=C\CCN(C2=O)[C@@H](Cc2ccc(C)cc2)C(=O)N(C)CC(=O)N[C@@H](CCc2cc(Cl)c3sccc3c2)C(=O)N2C[C@H](OCC)C[C@H]2C(=O)NC2(CC(C)(C)C2)C(=O)N(C)[C@@H](C(CC)CC)C(=O)N(C)[C@H](C(=O)N(C)C)CC(=O)N1C [PP2890] | – | – | – | – | AA (a compound having 20 or more is denoted as AA) | A (a compound having 10 or more and less than 20 is denoted as A)
10 | 6.3 nM | CC[C@H](C)[C@@H]1NC(=O)[C@@H]2CCCc3ccc(cc3)C[C@@H](C(=O)N(C)CC(=O)N[C@@H](CCc3ccc(C(F)(F)F)c(OC)c3)C(=O)N3C[C@H](OC4CCC4)C[C@H]3C(=O)NC3(CC(C)(C)C3)C(=O)N(C)[C@@H](C3CCCC3)C(=O)N(C)[C@H](C(=O)N(C)CC)CC(=O)N2C)N2CC/C=C\C[C@@H](C2=O)N(C)C(=O)CN(C)C1=O [PP3085] | – | – | – | – | A (a compound having 10 or more and less than 20 is denoted as A) | B (a compound having 3 or more and less than 10 is denoted as B)
11 | 23.2 nM | CCCN1C(=O)CN(C)C(=O)CN(C)C(=O)[C@H]([C@@H](C)CC)NC(=O)[C@H](CC(C)C)N(C)C(=O)C[C@@H](C(=O)N2CCOCC2)N(C)C(=O)[C@H](C2CCCC2)N(C)C(=O)C2(CCCC2)NC(=O)[C@@H]2C[C@H](OCC)CN2C(=O)[C@H](CCc2ccc(C(F)(F)F)c(Cl)c2)NC(=O)CN(C)C(=O)[C@@H]1Cc1ccc(C(F)(F)F)cc1 [PP0243] ([NMeL]I[Sar][Sar][NPrPhe(4-CF3)][Sar][hPhe(3-Cl-4-CF3)][cisHyp](Et)[Ac5c][NMeGly(cPent)][NMeD]-Morpholide; lactam N-11) | – | – | – | – | B (a compound having 3 or more and less than 10 is denoted as B) | C (A compound having a KD ratio of 0.1 or more and less than 3 is denoted as C)
